In patent US9018209B2, “Compounds and methods for the treatment of viruses and cancer” (Yale University, priority 2005, dated 2015):
pEC50, pIC50: −log10 of the molar value. Read-outs that look alike come from different tables or passages of the source.

What was measured:
IIIB strain of HIV-1 = assay: Anti-HIV-1 activity: protection of infected MT-2 cells, MTT colorimetric method; format: cell-based; details: for fold lower potency (higher EC50) than the corresponding DMA ether: Table 2b compounds
[1] = Cytotoxicity: inhibition of MT-2 cell growth; format: cell-based, human; details: human, MT-2 T-cells; Table 2b; MT-2 cells
From the text: (§1) The preparation of the analogues 4a-h involved the reaction between 2-bromothiazole 1 with the corresponding 5-amino-2-R-phenol 2, followed by reaction with 4-bromo-2-methyl-2-butene in presence of Cs2CO3 as a base (Scheme 1; see Table 1 for antiviral activities (EC50) and cytotoxicities (IC50) of these compounds, as determined using human MT-2 cells infected with IIIB strain of HIV-1).
(§2) See, Ruiz-Caro, supra. and Lin, et al., Biochem. Pharmacol. 1994, 47, 171-174.

MT-2 human T-cells = assay: Cytotoxicity: inhibition of MT-2 cell growth; format: cell-based
From the text: as §1, §2

[2] = Human immunodeficiency virus 1, IIIB, MT2, Table 1a, heteroaryl derivatives, N/A read as no activity, read-out: EC50
[3] = Homo sapiens, MT2, Table 1a, cytotoxicity, MT-2 cells, read-out: IC50
[4] = Homo sapiens, MT2, Table of bicyclic-heteroaryl phenyl amines, cytotoxicity, MT-2 cell assays, read-out: IC50
[5] = Table 1B, for 50% inhibition of MT-2 cell growth, triplicate samples
[6] = Table 2b, derivatives of pyrimidine 11, NA for EC50 > CC50, read-out: EC50
[7] = Table 1B, for 50% protection in MT-2 cells, triplicate samples, NA for EC50 > CC50, read-out: EC50
[8] = Table 1, compounds 4a-h, human MT-2 cells infected with IIIB strain of HIV-1, N/A read as no activity, read-out: EC50
[9] = Table 1, cytotoxicity, MT-2 cells, read-out: IC50
[10] = Table 1a, heteroaryl derivatives, N/A read as no activity, read-out: EC50
[11] = Table 1a, cytotoxicity, MT-2 cells, read-out: IC50
[12] = Human immunodeficiency virus 1, IIIB, MT2, Table of bicyclic-heteroaryl phenyl amines, MT-2 cell assays, read-out: EC50
[13] = Human immunodeficiency virus 1, IIIB, MT2
[14] = Table of bicyclic-heteroaryl phenyl amines, MT-2 cell assays, read-out: EC50
[15] = Table of bicyclic-heteroaryl phenyl amines, cytotoxicity, MT-2 cell assays, read-out: IC50

CC(C)=CCOc1cc(Nc2ncccn2)ccc1Cl [Compound 39d, N-(4-Chloro-3-(3-methylbut-2-enyloxy)phenyl)pyrimidin-2-amine]
pEC50 (IIIB strain of HIV-1; [2]): 6.70
CC50 [1]: 2.5 µM
pIC50 (MT-2 human T-cells; [3]): 5.60
pIC50 (MT-2 human T-cells; Homo sapiens, MT2, Table 2a, cytotoxicity, MT-2 cells, read-out: IC50): > 6.70

O=C1Nc2ccc(Cl)cc2[C@@](C#CC2CC2)(C(F)(F)F)O1 [Efavirenz, efavirenz, reference compound]
pEC50 (IIIB strain of HIV-1; Human immunodeficiency virus 1, IIIB, MT2, read-out: EC50): 8.70
pIC50 (MT-2 human T-cells; [4]): < 7.00
CC50 (MT-2 human T-cells; [5]): > 0.1 µM

C/C=C/COc1cc(Nc2nccc(OC)n2)ccc1Cl [Compound 11c]
fold lower potency (higher EC50) than the corresponding DMA ether (IIIB strain of HIV-1): ca. 10 fold
pEC50 (IIIB strain of HIV-1; [6]): 7.05
CC50 (MT-2 human T-cells; Table 2b, MT-2 cells): 17 µM

COc1nc(Nc2ccc(C#N)c(OCC=C(C)C)c2)nc(OC)n1 [Compound 8h]
pEC50 (IIIB strain of HIV-1; [7]): 7.66
CC50 (MT-2 human T-cells; [5]): > 100 µM

CCOc1ccnc(Nc2ccc(Cl)c(OCC=C(C)C)c2)n1 [Compound 9k]
pEC50 (IIIB strain of HIV-1; [7]): 7.39
CC50 (MT-2 human T-cells; [5]): 19 µM

CCc1ccc(Nc2nccs2)cc1OCC=C(C)C [Compound 4e, N-(4-ethyl-3-(3-methylbut-2-enyloxy)phenylthiazol)-2-amine]
pEC50 (IIIB strain of HIV-1; [8]): 5.30
pIC50 (MT-2 human T-cells; [9]): 4.51

CC(C)=CCOc1cc(Nc2nccs2)ccc1Cl [Compound 4d, N-(4-chloro-3-(3-methylbut-2-enyloxy)phenylthiazol)-2-amine]
pEC50 (IIIB strain of HIV-1; [8]): 6.52
pEC50 (IIIB strain of HIV-1; [10]): 6.52
pIC50 (MT-2 human T-cells; [9]): 4.59
pIC50 (MT-2 human T-cells; [11]): 4.59

CC(C)=CCOc1cc(Nc2ncc3ccoc3n2)ccc1Cl [compound 61]
pEC50 (IIIB strain of HIV-1; [12]): 6.89
pIC50 (MT-2 human T-cells; [4]): 4.70

COc1ccnc(Nc2ccc(Cl)c(Oc3ccccc3)c2)n1 [Compound 11d]
fold lower potency (higher EC50) than the corresponding DMA ether (IIIB strain of HIV-1): ca. 100 fold
pEC50 (IIIB strain of HIV-1; [6]): 5.60
CC50 (MT-2 human T-cells; Table 2b, MT-2 cells): 38 µM

COc1ccc(Nc2nccs2)cc1OCC=C(C)C [Compound 4c, N-(4-methoxy-3-(3-methylbut-2-enyloxy)phenylthiazol)-2-amine]
pEC50 (IIIB strain of HIV-1; [8]): 5.42
pIC50 (MT-2 human T-cells; [9]): 4.38

Clc1ccc(Nc2ncccn2)cc1Oc1ccccc1 [Compound 11b]
fold lower potency (higher EC50) than the corresponding DMA ether (IIIB strain of HIV-1): ca. 100 fold
pEC50 (IIIB strain of HIV-1; [6]): 4.89
CC50 (MT-2 human T-cells; Table 2b, MT-2 cells): 30 µM

COc1ccc(Nc2nc(CO)cs2)cc1OCC=C(C)C [Compound 10c, (2-(4-Methoxy-3-(3-methylbut-2-enyloxy)phenylamino)thiazol-4-yl)methanol]
pEC50 (IIIB strain of HIV-1; [13]): 5.05
pIC50 (MT-2 human T-cells; Homo sapiens, MT2): 4.10

CNc1ncnc(Nc2ccc(Cl)c(OCC=C(C)C)c2)n1 [Compound 7d]
pEC50 (IIIB strain of HIV-1; [7]): 7.51
CC50 (MT-2 human T-cells; [5]): 3.1 µM

CC(C)=CCOc1cc(Nc2nccc3ccccc23)ccc1Cl [isoquinoline 62a]
pEC50 (IIIB strain of HIV-1; [14]): 7.47
pIC50 (MT-2 human T-cells; [15]): 4.72

CC(C)=CCOc1cc(Nc2nccc(N)n2)ccc1C [Compound 40b, N^2-(4-Methyl-3-(3-methylbut-2-enyloxy)phenyl)pyrimidin-2,4-diamine]
pEC50 (IIIB strain of HIV-1; [2]): 6.46
pIC50 (MT-2 human T-cells; [3]): 5.19

CSc1ccnc(Nc2ccc(Cl)c(OCC=C(C)C)c2)n1 [Compound 9i]
pEC50 (IIIB strain of HIV-1; [7]): 7.74
CC50 (MT-2 human T-cells; [5]): 2.8 µM

CCC(C)=CCOc1cc(Nc2nccs2)ccc1C (mixture of isomers) [Compound 18b, (E/Z)-N-(4-methyl-3-(3-methylpent-2-enyloxy)phenyl)thiazol-2-amine]
pEC50 (IIIB strain of HIV-1; Table 3, thiazoles 18-23, N/A read as no activity, read-out: EC50): 5.10
pIC50 (MT-2 human T-cells; Table 3, cytotoxicity, MT-2 cells, read-out: IC50): 4.49

CC(C)=CCOc1cc(Nc2nccc3occc23)ccc1Cl [compound 54]
pEC50 (IIIB strain of HIV-1; [12]): 8.22
pIC50 (MT-2 human T-cells; [4]): 4.60

CSc1ccnc(Nc2ccc(Cl)c(OCC=C(C)C)c2)n1 [Compound 48]
pEC50 (IIIB strain of HIV-1; [10]): 6.74
pIC50 (MT-2 human T-cells; [11]): 5.55

Cc1nccc(C(F)(F)F)n1 [Compound 49]
pEC50 (IIIB strain of HIV-1; [2]): 7.19
pIC50 (MT-2 human T-cells; [3]): 5.60

CC(C)=CCOc1cc(Nc2nccc3ccoc23)ccc1Cl [furopyridine 56a]
pEC50 (IIIB strain of HIV-1; [14]): 7.10
pIC50 (MT-2 human T-cells; [15]): 4.68

COc1cc(N)nc(Nc2ccc(Cl)c(OCC=C(C)C)c2)n1 [Compound 9j]
pEC50 (IIIB strain of HIV-1; [7]): 5.52
CC50 (MT-2 human T-cells; [5]): 19 µM

CC(C)=CCOc1cc(Nc2ncnc(N)n2)ccc1Cl [Compound 7c]
pEC50 (IIIB strain of HIV-1; [7]): 6.41
CC50 (MT-2 human T-cells; [5]): 48 µM

CC(C)=CCOc1cc(Nc2nccc3ccoc23)ccc1C#N [furopyridine 56b]
pEC50 (IIIB strain of HIV-1; [14]): 7.96
pIC50 (MT-2 human T-cells; [15]): 7.04

CC(C)=CCOc1cc(Nc2nccs2)ccc1C(C)C [Compound 4g, N-(4-isopropyl-3-(3-methylbut-2-enyloxy)phenylthiazol)-2-amine]
pEC50 (IIIB strain of HIV-1; [8]): 4.64
pIC50 (MT-2 human T-cells; [9]): 4.64

COc1nc(N)nc(Nc2ccc(C#N)c(OCC=C(C)C)c2)n1 [Compound 8j]
pEC50 (IIIB strain of HIV-1; [7]): 8.05
CC50 (MT-2 human T-cells; [5]): 0.11 µM

CC(C)=CCOc1cc(Nc2ncccn2)ccc1C [Compound 39b, N-(4-Methyl-3-(3-methylbut-2-enyloxy)phenyl)pyrimidin-2-amine]
pEC50 (IIIB strain of HIV-1; [2]): 5.55
pIC50 (MT-2 human T-cells; [3]): 4.11

COc1ccnc(Nc2ccc(C)c(OCC=C(C)C)c2)n1 [Compound 42b, 4-Methoxy-N-(4-methyl-3-(3-methylbut-2-enyloxy)phenyl)pyrimidin-2-amine]
pEC50 (IIIB strain of HIV-1; [2]): 6.49
pIC50 (MT-2 human T-cells; [3]): 4.39

CC(C)=CCOc1cc(Nc2nc(CO)cs2)ccc1C [Compound 10b, (2-(4-Methyl-3-(3-methylbut-2-enyloxy)phenylamino)thiazol-4-yl)methanol]
pEC50 (IIIB strain of HIV-1; [13]): 4.89
pIC50 (MT-2 human T-cells; Homo sapiens, MT2): 4.64

CC(C)=CCOc1cccc(Nc2nccs2)c1 [Compound 4a, N-(3-(3-methylbut-2-enyloxy)phenylthiazol)-2-amine]
pEC50 (IIIB strain of HIV-1; [8]): 5.00
pIC50 (MT-2 human T-cells; [9]): 4.64

CSc1ncnc(Nc2ccc(C#N)c(OCC=C(C)C)c2)n1 [Compound 8i]
pEC50 (IIIB strain of HIV-1; [7]): 8.30
CC50 (MT-2 human T-cells; [5]): 8.4 µM

COc1nc(Nc2ccc(Cl)c(OCC=C(C)C)c2)nc(OC)n1 [Compound 7h]
pEC50 (IIIB strain of HIV-1; [7]): 6.54
CC50 (MT-2 human T-cells; [5]): 20 µM

CC(C)=CCOc1cc(Nc2nccs2)ccc1C [Compound 4b, N-(4-methyl-3-(3-methylbut-2-enyloxy)phenylthiazol)-2-amine]
pEC50 (IIIB strain of HIV-1; [8]): 5.52
pEC50 (IIIB strain of HIV-1; [10]): 5.52
pIC50 (MT-2 human T-cells; [9]): 4.77
pIC50 (MT-2 human T-cells; [11]): 4.77
